Our source for the MIC and HC10 values is ChEMBL document CHEMBL6134890, “Terminally Symmetric β-Turn Peptides for Multidrug-Resistant Bacterial Infections” (J Med Chem, 2025).

In series [1] the test system is Staphylococcus aureus. Nature of the series: Antimicrobial activity against multi-drug resistant Staphylococcus aureus assessed as reduction in bacterial growth by broth dilution method. The format is functional.
In another series the test system is Enterococcus faecalis. Nature of the series: Antimicrobial activity against multi-drug resistant Enterococcus faecalis assessed as reduction in bacterial growth by broth dilution method. The series is classed as functional. For orientation: Broth dilution looks for growth in wells or tubes with falling amounts of substance.
Series [2] relates to Staphylococcus aureus. Nature of the series: Antimicrobial activity against Staphylococcus aureus ATCC 25923 assessed as reduction in bacterial growth by broth dilution method. The format is functional.
The test system of series [3] is Staphylococcus epidermidis. Nature of the series: Antimicrobial activity against multi-drug resistant Staphylococcus epidermidis assessed as reduction in bacterial growth by broth dilution method. The format is functional.
Series [4] relates to Escherichia coli. Nature of the series: Antimicrobial activity against multi-drug resistant Escherichia coli assessed as reduction in bacterial growth by broth dilution method. The format is functional.
Series [5] concerns Escherichia coli. Nature of the series: Antimicrobial activity against Escherichia coli ATCC 25922 assessed as reduction in bacterial growth by broth dilution method. The series is classed as functional.
A short description of series [6]: Hemolytic activity in human Red blood cell assessed as hemolysis incubated for 1 hrs by microplate reader based analysis. The format is toxicity. As to conditions: erythrocyte.
Another series has as its system Acinetobacter baumannii. Nature of the series: Antimicrobial activity against multi-drug resistant Acinetobacter baumannii assessed as reduction in bacterial growth by broth dilution method. The series is classed as functional.
The subject of a further series is Klebsiella pneumoniae. Nature of the series: Antimicrobial activity against multi-drug resistant Klebsiella pneumoniae assessed as reduction in bacterial growth by broth dilution method. The series is classed as functional.

In brackets after ≈: the same amount, converted by molar mass. Bridge positions count the residues as written; N and C are the ends. Square brackets hold non-standard residues; d marks the D form. Peptide text beside a SMILES is read from it. * marks the point of attachment. X1 = CC[C@H](C)CCCCC(=O)*; Dab = NCC[C@H](N)C(=O)O

Regarding `CC(C)C[C@H](NC(=O)[C@H](CCCCN)NC(=O)[C@H](CC(C)C)NC(=O)[C@H](CCCCN)NC(=O)[C@H](Cc1ccccc1)NC(=O)[C@@H]1CCCN1C(=O)[C@H](Cc1c[nH]c2ccccc12)NC(=O)[C@H](Cc1c[nH]c2ccccc12)NC(=O)[C@H](Cc1c[nH]c2ccccc12)NC(=O)[C@@H]1CCCN1C(=O)[C@H](Cc1ccccc1)NC(=O)[C@H](CCCCN)NC(=O)[C@H](CC(C)C)NC(=O)[C@H](CCCCN)NC(=O)[C@H](CC(C)C)NC(=O)[C@@H](N)CCCCN)C(=O)N[C@@H](CCCCN)C(N)=O` (H-KLKLKFPWWWPFKLKLK-NH2), the MIC (usually the lowest concentration that inhibits growth of the organism) was found to be 4 µM (≈ 9.14 µg/mL) with Staphylococcus aureus [1]; 8 µM (≈ 18.3 µg/mL) in the series on Enterococcus faecalis; 8 µM (≈ 18.3 µg/mL) with Staphylococcus aureus [2]; 4 µM (≈ 9.14 µg/mL) in series [3]; 8 µM (≈ 18.3 µg/mL) in the series on Escherichia coli [4]; 8 µM (≈ 18.3 µg/mL) with Escherichia coli [5]. In addition, the MIC with Acinetobacter baumannii and in the series with Klebsiella pneumoniae was 8 µM (≈ 18.3 µg/mL) each time. Besides, the HC10 in [6] came out at 38.84 µM.

For the compound `NCCCC[C@H](NC(=O)[C@H](Cc1c[nH]c2ccccc12)NC(=O)[C@H](CCCCN)NC(=O)[C@H](Cc1c[nH]c2ccccc12)NC(=O)[C@H](Cc1ccccc1)NC(=O)[C@@H]1CCCN1C(=O)[C@H](Cc1c[nH]c2ccccc12)NC(=O)[C@H](Cc1c[nH]c2ccccc12)NC(=O)[C@H](Cc1c[nH]c2ccccc12)NC(=O)[C@@H]1CCCN1C(=O)[C@H](Cc1ccccc1)NC(=O)[C@H](Cc1c[nH]c2ccccc12)NC(=O)[C@H](CCCCN)NC(=O)[C@H](Cc1c[nH]c2ccccc12)NC(=O)[C@@H](N)CCCCN)C(N)=O` (H-KWKWFPWWWPFWKWK-NH2), the MIC with Staphylococcus aureus [1] came out at 4 µM (≈ 9.29 µg/mL); in the series with Enterococcus faecalis, 16 µM (≈ 37.1 µg/mL); with Staphylococcus aureus [2], 4 µM (≈ 9.29 µg/mL); in series [3], 16 µM (≈ 37.1 µg/mL); with Escherichia coli [4], 64 µM (≈ 149 µg/mL); in the series with Escherichia coli [5] it was 32 µM (≈ 74.3 µg/mL). Besides, the MIC is 64 µM (≈ 149 µg/mL) in the series with Acinetobacter baumannii and 256 µM (≈ 594 µg/mL) in the series on Klebsiella pneumoniae. In addition, the HC10 in series [6] turned out to be 7.46 µM.

`NCCCC[C@H](NC(=O)[C@H](Cc1c[nH]c2ccccc12)NC(=O)[C@H](CCCCN)NC(=O)[C@H](Cc1c[nH]c2ccccc12)NC(=O)[C@H](CCCCN)NC(=O)[C@H](Cc1ccccc1)NC(=O)[C@@H]1CCCN1C(=O)[C@H](Cc1c[nH]c2ccccc12)NC(=O)[C@H](Cc1c[nH]c2ccccc12)NC(=O)[C@H](Cc1c[nH]c2ccccc12)NC(=O)[C@@H]1CCCN1C(=O)[C@H](Cc1ccccc1)NC(=O)[C@H](CCCCN)NC(=O)[C@H](Cc1c[nH]c2ccccc12)NC(=O)[C@H](CCCCN)NC(=O)[C@H](Cc1c[nH]c2ccccc12)NC(=O)[C@@H](N)CCCCN)C(N)=O` (H-KWKWKFPWWWPFKWKWK-NH2): the MIC with Staphylococcus aureus [1] was 8 µM (≈ 20.6 µg/mL); in the series with Enterococcus faecalis, 8 µM (≈ 20.6 µg/mL); in the series with Staphylococcus aureus [2], 4 µM (≈ 10.3 µg/mL); in series [3], 8 µM (≈ 20.6 µg/mL); in the series with Escherichia coli [4] it was 4 µM (≈ 10.3 µg/mL); with Escherichia coli [5], 8 µM (≈ 20.6 µg/mL). The MIC with Acinetobacter baumannii and in the series on Klebsiella pneumoniae was 8 µM (≈ 20.6 µg/mL) throughout. Besides, the HC10 in [6] stood at 2.1 µM.

Turning to `CC(C)CCCCC(=O)N[C@@H](CCN)C(=O)N[C@H](C(=O)N[C@@H](CCN)C(=O)N[C@H]1CCNC(=O)[C@H]([C@@H](C)O)NC(=O)[C@H](CCN)NC(=O)[C@H](CCN)NC(=O)[C@H](CC(C)C)NC(=O)[C@@H](Cc2ccccc2)NC(=O)[C@H](CCN)NC1=O)[C@@H](C)O.CC[C@H](C)CCCCC(=O)N[C@@H](CCN)C(=O)N[C@H](C(=O)N[C@@H](CCN)C(=O)N[C@H]1CCNC(=O)[C@H]([C@@H](C)O)NC(=O)[C@H](CCN)NC(=O)[C@H](CCN)NC(=O)[C@H](CC(C)C)NC(=O)[C@@H](Cc2ccccc2)NC(=O)[C@H](CCN)NC1=O)[C@@H](C)O` (X1-[Dab]T[Dab][Dab][Dab][dF]L[Dab][Dab]T; lactam 4-C), the MIC in the series on Staphylococcus aureus [1] amounted to 16 µM; with Enterococcus faecalis, 128 µM; in the series on Staphylococcus aureus [2], 16 µM; in series [3], 16 µM; with Escherichia coli [4], 2 µM; in the series on Escherichia coli [5], 2 µM. Also, the MIC in the series on Acinetobacter baumannii and in the series with Klebsiella pneumoniae was 2 µM throughout.

For `CC[C@H](C)[C@H](NC(=O)[C@H](CCCCN)NC(=O)[C@@H](NC(=O)[C@@H]1CCCN1C(=O)[C@H](Cc1c[nH]c2ccccc12)NC(=O)[C@H](Cc1c[nH]c2ccccc12)NC(=O)[C@H](Cc1c[nH]c2ccccc12)NC(=O)[C@@H]1CCCN1C(=O)[C@@H](NC(=O)[C@H](CCCCN)NC(=O)[C@@H](NC(=O)[C@@H](N)CCCCN)[C@@H](C)CC)[C@@H](C)CC)[C@@H](C)CC)C(=O)N[C@@H](CCCCN)C(N)=O` (H-KIKIPWWWPIKIK-NH2), the MIC came out at 4 µM (≈ 6.94 µg/mL) in the series on Staphylococcus aureus [1]; 8 µM (≈ 13.9 µg/mL) in the series with Enterococcus faecalis; 4 µM (≈ 6.94 µg/mL) in the series with Staphylococcus aureus [2]; 16 µM (≈ 27.8 µg/mL) in series [3]; 8 µM (≈ 13.9 µg/mL) with Escherichia coli [4]; 8 µM (≈ 13.9 µg/mL) with Escherichia coli [5]. Moreover, the MIC in the series on Acinetobacter baumannii was 16 µM (≈ 27.8 µg/mL); in the series on Klebsiella pneumoniae, 32 µM (≈ 55.5 µg/mL). Also, the HC10 in series [6] is > 256 µM.

Consider `NCCCC[C@H](NC(=O)[C@H](Cc1c[nH]c2ccccc12)NC(=O)[C@H](CCCCN)NC(=O)[C@@H]1CCCN1C(=O)[C@H](Cc1c[nH]c2ccccc12)NC(=O)[C@H](Cc1c[nH]c2ccccc12)NC(=O)[C@H](Cc1c[nH]c2ccccc12)NC(=O)[C@@H]1CCCN1C(=O)[C@H](CCCCN)NC(=O)[C@H](Cc1c[nH]c2ccccc12)NC(=O)[C@H](CCCCN)NC(=O)[C@@H](N)Cc1c[nH]c2ccccc12)C(=O)N[C@@H](Cc1c[nH]c2ccccc12)C(N)=O` (H-WKWKPWWWPKWKW-NH2), for which the minimal inhibitory concentration (MIC) in the series with Staphylococcus aureus [1] worked out at 4 µM (≈ 8.11 µg/mL); in the series with Enterococcus faecalis, 2 µM (≈ 4.05 µg/mL); in the series on Staphylococcus aureus [2] it was 4 µM (≈ 8.11 µg/mL); in series [3] it was 2 µM (≈ 4.05 µg/mL); with Escherichia coli [4], 8 µM (≈ 16.2 µg/mL); in the series with Escherichia coli [5] it was 8 µM (≈ 16.2 µg/mL). Moreover, the MIC in the series on Acinetobacter baumannii and in the series on Klebsiella pneumoniae was 8 µM (≈ 16.2 µg/mL) each time. For the same compound, the HC10 in [6] amounted to 28.58 µM.

For `CC[C@H](C)[C@H](NC(=O)[C@H](CCCCN)NC(=O)[C@@H](NC(=O)[C@H](CCCCN)NC(=O)[C@H](Cc1ccccc1)NC(=O)[C@@H]1CCCN1C(=O)[C@H](Cc1c[nH]c2ccccc12)NC(=O)[C@H](Cc1c[nH]c2ccccc12)NC(=O)[C@H](Cc1c[nH]c2ccccc12)NC(=O)[C@@H]1CCCN1C(=O)[C@H](Cc1ccccc1)NC(=O)[C@H](CCCCN)NC(=O)[C@@H](NC(=O)[C@H](CCCCN)NC(=O)[C@@H](NC(=O)[C@@H](N)CCCCN)[C@@H](C)CC)[C@@H](C)CC)[C@@H](C)CC)C(=O)N[C@@H](CCCCN)C(N)=O` (H-KIKIKFPWWWPFKIKIK-NH2), the MIC in the series with Staphylococcus aureus [1] turned out to be 4 µM (≈ 9.14 µg/mL); in the series with Enterococcus faecalis, 4 µM (≈ 9.14 µg/mL); in the series on Staphylococcus aureus [2], 4 µM (≈ 9.14 µg/mL); in [3], 8 µM (≈ 18.3 µg/mL); in the series on Escherichia coli [4], 8 µM (≈ 18.3 µg/mL); in the series on Escherichia coli [5] it was 16 µM (≈ 36.6 µg/mL). Further, the MIC with Acinetobacter baumannii amounted to 8 µM (≈ 18.3 µg/mL); with Klebsiella pneumoniae it was 32 µM (≈ 73.2 µg/mL). Further, the HC10 in series [6] is 29.44 µM.

For the compound `NCCCC[C@H](NC(=O)[C@H](Cc1c[nH]c2ccccc12)NC(=O)[C@H](CCCCN)NC(=O)[C@H](Cc1ccccc1)NC(=O)[C@@H]1CCCN1C(=O)[C@H](Cc1c[nH]c2ccccc12)NC(=O)[C@H](Cc1c[nH]c2ccccc12)NC(=O)[C@H](Cc1c[nH]c2ccccc12)NC(=O)[C@@H]1CCCN1C(=O)[C@H](Cc1ccccc1)NC(=O)[C@H](CCCCN)NC(=O)[C@H](Cc1c[nH]c2ccccc12)NC(=O)[C@H](CCCCN)NC(=O)[C@@H](N)Cc1c[nH]c2ccccc12)C(=O)N[C@@H](Cc1c[nH]c2ccccc12)C(N)=O` (H-WKWKFPWWWPFKWKW-NH2), the MIC in the series with Staphylococcus aureus [1] worked out at 16 µM (≈ 37.1 µg/mL); in the series on Enterococcus faecalis, 16 µM (≈ 37.1 µg/mL); in the series with Staphylococcus aureus [2], 8 µM (≈ 18.6 µg/mL); in series [3], 16 µM (≈ 37.1 µg/mL); in the series on Escherichia coli [4], 128 µM (≈ 297 µg/mL); in the series on Escherichia coli [5], 128 µM (≈ 297 µg/mL). Further, the MIC came to 16 µM (≈ 37.1 µg/mL) in the series on Acinetobacter baumannii and 256 µM (≈ 594 µg/mL) with Klebsiella pneumoniae. Moreover, in [6], the HC10 was 6.82 µM.
